Question: For CCN(CCCCC1CCN(C(c2ccccc2)c2ccccc2)CC1)C(=O)CCc1cccnc1 [compound 68, N-[4-(1-diphenylmethyl-piperidin-4-yl)-butyl]-N-ethyl-3-(pyridin-3-yl) -propionamide], which melting point is on record?
Answer: 72 to 74 °C

Question: For O=C(CCc1cccnc1)NCCCCCC1CCN(C(c2ccccc2)c2ccccc2)CC1 [compound 101, N-[5-(1-diphenylmethyl-piperidin-4-yl)-pentyl]-3-(pyridin-3-yl)-propionamide], which melting point is on record?
Answer: 112 to 114 °C

Question: With O=C(CCc1cccnc1)NCCCCC1CCN(C2c3ccccc3COc3ccccc32)CC1 (centres unmarked) [compound 142, N-{4-[1-(6,11-dihydrodibenzo[b,e]oxepin-11-yl)-piperidin-4-yl]-butyl}-3-(pyridin-3-yl)-propionamide] as the compound, how does the melting point read?
Answer: 110 to 112 °C

Question: Which melting point does the source give for O=C(COc1cccnc1)NCCCCC1CCN(C(c2ccccc2)c2ccccc2)CC1 [compound 84, N-[4-(1-diphenylmethyl-piperidin-4-yl)-butyl]-2-(pyridin-3-yloxy)-acetamide] here?
Answer: 103 to 105 °C

Question: With O=C(CCc1cccnc1)NCCCCC1CCN(C(=O)c2ccccc2)CC1 [compound 162, N-[4-(1-benzoylpiperidin-4-yl)-butyl]-3-(pyridin-3-yl)-propionamide] as the compound, how does the melting point read?
Answer: 72 to 74 °C
